Key:
Test in all cases: apparent dissociation constant (depletion-corrected kinobeads competition) (-log10 M (pKd app)); higher = tighter binding
[1] = target: ATM (UniProt Q13315); settings: lysate: K562 + HEK293 + human placenta lysate mix
[2] = target: T1, MASTL (UniProt Q96GX5); settings: lysate: K562 + HEK293 + human placenta lysate mix
T1 sequence (whole entry): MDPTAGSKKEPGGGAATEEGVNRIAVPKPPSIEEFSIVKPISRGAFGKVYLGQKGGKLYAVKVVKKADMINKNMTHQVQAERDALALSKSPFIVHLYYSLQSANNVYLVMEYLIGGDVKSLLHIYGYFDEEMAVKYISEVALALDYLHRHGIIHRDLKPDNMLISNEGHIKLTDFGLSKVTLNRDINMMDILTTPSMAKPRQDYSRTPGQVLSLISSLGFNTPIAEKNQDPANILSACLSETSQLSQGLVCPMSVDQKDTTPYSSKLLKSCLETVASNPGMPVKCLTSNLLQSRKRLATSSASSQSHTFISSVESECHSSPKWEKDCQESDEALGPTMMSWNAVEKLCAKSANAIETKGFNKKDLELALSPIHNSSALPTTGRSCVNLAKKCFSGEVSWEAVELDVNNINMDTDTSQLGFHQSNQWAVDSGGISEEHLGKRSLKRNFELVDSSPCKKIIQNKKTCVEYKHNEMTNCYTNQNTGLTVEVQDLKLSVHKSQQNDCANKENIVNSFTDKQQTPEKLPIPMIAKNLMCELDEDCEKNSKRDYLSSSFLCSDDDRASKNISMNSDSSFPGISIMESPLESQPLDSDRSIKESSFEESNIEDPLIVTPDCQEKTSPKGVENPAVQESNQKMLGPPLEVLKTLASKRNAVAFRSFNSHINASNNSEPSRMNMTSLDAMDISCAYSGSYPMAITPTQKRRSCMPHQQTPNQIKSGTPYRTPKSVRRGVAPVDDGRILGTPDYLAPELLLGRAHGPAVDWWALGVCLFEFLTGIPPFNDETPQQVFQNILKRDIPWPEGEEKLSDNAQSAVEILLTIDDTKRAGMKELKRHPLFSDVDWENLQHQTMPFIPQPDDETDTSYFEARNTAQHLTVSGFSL

[3] = target: TRRAP (UniProt Q9Y4A5); settings: lysate: K562 + HEK293 + human placenta lysate mix
[4] = target: PI4KA (UniProt P42356); settings: lysate: K562 + HEK293 + human placenta lysate mix
[5] = target: MARK1 (UniProt Q9P0L2); settings: lysate: K562 + HEK293 + human placenta lysate mix
[6] = target: PDIK1L (UniProt Q8N165); settings: lysate: K562 + HEK293 + human placenta lysate mix
[7] = target: PIK3R4 (UniProt Q99570); settings: lysate: K562 + HEK293 + human placenta lysate mix
[8] = target: MAST3 (UniProt O60307)
[9] = target: RP6-213H19 1
[10] = target: T2, PIP4K2A (UniProt P48426)
T2 sequence (whole entry): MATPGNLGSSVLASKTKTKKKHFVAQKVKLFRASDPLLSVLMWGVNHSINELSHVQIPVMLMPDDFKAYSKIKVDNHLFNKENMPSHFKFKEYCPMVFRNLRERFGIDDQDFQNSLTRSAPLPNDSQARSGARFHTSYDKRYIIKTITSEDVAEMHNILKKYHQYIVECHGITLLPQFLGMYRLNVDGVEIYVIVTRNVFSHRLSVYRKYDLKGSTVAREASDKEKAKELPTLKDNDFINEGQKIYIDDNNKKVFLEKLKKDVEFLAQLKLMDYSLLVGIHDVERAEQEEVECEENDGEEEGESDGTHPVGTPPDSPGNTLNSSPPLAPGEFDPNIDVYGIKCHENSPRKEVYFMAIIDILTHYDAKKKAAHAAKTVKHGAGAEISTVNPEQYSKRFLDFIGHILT

[11] = lysate: K562 + HEK293 + human placenta lysate mix
[12] = lysate: human PBMC lysate, individual donor, donor: donor 1
[13] = lysate: human PBMC lysate, individual donor, donor: donor 2
[14] = lysate: human PBMC lysate, individual donor, donor: donor 3

Measured: apparent dissociation constant (-log10 M)

Chain of MAST3 (O60307 whole entry): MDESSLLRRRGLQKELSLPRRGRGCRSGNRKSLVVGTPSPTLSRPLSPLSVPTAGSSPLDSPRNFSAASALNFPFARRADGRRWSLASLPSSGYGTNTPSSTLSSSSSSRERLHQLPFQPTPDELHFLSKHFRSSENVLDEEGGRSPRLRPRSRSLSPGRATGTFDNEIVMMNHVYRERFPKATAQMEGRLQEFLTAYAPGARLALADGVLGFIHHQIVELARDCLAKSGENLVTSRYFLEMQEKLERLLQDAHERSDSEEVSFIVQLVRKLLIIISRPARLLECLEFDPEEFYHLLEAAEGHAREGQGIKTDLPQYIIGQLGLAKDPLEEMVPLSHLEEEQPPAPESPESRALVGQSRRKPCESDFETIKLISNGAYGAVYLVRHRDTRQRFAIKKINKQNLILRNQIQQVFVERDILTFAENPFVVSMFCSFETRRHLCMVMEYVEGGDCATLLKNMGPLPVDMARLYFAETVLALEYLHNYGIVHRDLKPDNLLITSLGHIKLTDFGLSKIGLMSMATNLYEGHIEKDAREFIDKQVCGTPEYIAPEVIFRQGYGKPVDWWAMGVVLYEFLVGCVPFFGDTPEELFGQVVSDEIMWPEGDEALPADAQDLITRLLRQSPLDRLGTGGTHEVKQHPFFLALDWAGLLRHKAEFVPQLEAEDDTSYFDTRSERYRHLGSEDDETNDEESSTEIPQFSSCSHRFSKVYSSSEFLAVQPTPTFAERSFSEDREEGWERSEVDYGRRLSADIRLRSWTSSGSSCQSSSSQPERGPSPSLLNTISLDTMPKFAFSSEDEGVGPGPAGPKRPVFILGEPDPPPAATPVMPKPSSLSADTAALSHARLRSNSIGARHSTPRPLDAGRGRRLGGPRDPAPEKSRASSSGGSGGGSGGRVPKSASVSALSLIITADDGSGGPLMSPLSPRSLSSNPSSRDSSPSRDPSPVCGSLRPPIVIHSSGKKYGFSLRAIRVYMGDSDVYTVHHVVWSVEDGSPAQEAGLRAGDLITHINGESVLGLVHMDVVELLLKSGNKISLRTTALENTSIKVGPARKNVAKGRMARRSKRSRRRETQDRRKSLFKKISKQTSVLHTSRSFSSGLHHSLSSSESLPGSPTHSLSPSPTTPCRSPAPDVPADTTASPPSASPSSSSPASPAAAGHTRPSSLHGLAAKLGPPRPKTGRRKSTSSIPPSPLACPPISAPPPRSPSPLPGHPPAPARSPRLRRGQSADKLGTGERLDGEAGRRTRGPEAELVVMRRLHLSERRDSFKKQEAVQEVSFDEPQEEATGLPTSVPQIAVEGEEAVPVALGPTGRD
Chain of PIK3R4 (Q99570 whole entry): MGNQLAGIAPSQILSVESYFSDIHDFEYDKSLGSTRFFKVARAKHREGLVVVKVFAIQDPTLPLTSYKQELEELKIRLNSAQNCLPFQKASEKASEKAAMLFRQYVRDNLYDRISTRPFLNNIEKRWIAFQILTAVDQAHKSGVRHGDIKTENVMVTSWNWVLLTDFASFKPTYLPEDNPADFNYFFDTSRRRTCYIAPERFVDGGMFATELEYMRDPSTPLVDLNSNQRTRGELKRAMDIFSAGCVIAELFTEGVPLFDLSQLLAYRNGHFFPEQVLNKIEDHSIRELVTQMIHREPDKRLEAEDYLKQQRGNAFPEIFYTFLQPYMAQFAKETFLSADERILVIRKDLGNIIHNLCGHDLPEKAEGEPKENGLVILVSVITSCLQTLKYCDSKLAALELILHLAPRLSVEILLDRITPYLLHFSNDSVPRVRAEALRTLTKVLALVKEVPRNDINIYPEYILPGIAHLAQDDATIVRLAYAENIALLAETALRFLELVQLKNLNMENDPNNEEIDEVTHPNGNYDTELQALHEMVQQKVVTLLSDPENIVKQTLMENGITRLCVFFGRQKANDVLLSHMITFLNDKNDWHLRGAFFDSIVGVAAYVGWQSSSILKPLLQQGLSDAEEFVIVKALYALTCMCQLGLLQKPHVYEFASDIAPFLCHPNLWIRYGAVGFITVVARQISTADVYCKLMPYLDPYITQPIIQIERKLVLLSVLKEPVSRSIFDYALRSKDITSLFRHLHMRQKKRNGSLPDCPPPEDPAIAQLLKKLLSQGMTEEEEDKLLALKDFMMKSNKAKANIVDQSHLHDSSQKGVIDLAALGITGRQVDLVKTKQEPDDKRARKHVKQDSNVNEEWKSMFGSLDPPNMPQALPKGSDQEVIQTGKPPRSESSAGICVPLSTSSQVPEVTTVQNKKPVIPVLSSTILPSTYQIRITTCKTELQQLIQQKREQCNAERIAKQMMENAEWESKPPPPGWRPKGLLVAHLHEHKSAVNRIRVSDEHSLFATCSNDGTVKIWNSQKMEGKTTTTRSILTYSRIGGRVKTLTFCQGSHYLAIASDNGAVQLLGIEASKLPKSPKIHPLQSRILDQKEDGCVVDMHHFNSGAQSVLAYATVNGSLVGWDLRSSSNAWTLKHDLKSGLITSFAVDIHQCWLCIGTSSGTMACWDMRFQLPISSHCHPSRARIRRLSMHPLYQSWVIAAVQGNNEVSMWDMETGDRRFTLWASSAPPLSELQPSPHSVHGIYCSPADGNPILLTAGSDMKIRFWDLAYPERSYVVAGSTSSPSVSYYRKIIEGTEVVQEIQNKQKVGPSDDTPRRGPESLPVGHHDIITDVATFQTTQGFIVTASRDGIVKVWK
Chain of MARK1 (Q9P0L2 whole entry, looked up): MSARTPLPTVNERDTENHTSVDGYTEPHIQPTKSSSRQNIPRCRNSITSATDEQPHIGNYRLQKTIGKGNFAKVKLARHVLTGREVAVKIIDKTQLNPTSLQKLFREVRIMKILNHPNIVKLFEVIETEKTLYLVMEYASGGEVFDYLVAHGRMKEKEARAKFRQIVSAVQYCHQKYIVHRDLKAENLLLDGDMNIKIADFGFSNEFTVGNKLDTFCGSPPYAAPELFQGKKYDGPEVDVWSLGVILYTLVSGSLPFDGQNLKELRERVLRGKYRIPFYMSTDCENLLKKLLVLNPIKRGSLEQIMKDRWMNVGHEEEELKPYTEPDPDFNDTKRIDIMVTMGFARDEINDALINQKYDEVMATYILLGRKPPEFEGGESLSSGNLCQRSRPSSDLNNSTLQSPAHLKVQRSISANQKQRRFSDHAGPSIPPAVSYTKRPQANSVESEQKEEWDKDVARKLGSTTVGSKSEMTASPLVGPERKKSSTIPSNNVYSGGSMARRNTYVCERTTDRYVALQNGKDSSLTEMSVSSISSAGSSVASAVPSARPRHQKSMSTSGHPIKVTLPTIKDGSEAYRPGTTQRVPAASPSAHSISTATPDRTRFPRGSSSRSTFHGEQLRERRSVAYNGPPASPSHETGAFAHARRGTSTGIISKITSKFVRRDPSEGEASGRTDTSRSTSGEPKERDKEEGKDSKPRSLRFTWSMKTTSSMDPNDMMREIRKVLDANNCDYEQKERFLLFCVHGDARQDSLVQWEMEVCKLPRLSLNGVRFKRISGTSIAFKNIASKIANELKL
Chain of PDIK1L (Q8N165 whole entry): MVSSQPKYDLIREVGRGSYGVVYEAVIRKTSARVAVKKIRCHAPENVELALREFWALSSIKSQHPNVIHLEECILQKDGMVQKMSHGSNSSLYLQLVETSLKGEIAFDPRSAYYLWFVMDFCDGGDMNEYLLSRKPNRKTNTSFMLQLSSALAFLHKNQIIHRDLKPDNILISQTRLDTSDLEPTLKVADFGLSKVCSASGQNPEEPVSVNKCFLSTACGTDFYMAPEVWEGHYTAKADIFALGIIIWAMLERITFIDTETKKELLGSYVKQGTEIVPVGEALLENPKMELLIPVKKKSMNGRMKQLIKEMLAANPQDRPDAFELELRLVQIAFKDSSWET

Cc1nc(Nc2ncc(C(=O)Nc3c(C)cccc3Cl)s2)cc(N2CCN(CCO)CC2)n1 [dasatinib]
inactive: [1] | [2] | [3] | [4] | [5] | [6] | [7] | [8]; [11] | [8]; [12] | [8]; [13] | [8]; [14] | [9]; [11] | [9]; [12] | [9]; [13] | [9]; [14] | [10]; [11] | [10]; [12] | [10]; [13] | [10]; [14]
